Data reported in US20200062696A1, “COMPOSITIONS AND METHODS FOR INHIBITING RETICULON 4” (THE REGENTS OF THE UNIVERSITY OF CALIFORNIA, priority 2017, published 2020).

Test system: SW620 colorectal cancer cells
Assay: Cell proliferation of SW620 cells (Hoescht staining)
Type: cell-based
Conditions: 48 h, vs DMSO, average of n = 3/group
Method: Cell Culture. SW620 cells were purchased from ATCC. SW620 cells were grown in L-15 media with 10% fetal bovine serum (FBS) in ambient CO2. U2OS cells were grown in DMEM media supplemented with 10% FBS at 37° C. with 5% CO2.
Survival and Proliferation Assays. Cells were plated the evening before the experiment, and allowed to adhere overnight. For serum-free cell survival assays, cells were plated in media not containing FBS. For cell proliferation assays, cells were plated in regular media. For the chemical genetics screen, cells were treated with either DMSO or the cysteine-reactive fragment for 48 h and cell viability was assessed by Hoescht stain using our previously described methods

How did the activity at 50 µM (Homo sapiens, SW-620, cysteine-reactive fragment 50 μM, read-out: SW620 proliferation Ave) turn out when `C=CC(=O)Nc1ccc(Oc2ccc(Cl)cc2)cc1` [DKM 3-30, N-(4-(4-chlorophenoxy)phenyl)acrylamide] was run?
The activity at 50 µM was 54%.

What about the “SW620 proliferation Ave” value (cysteine-reactive fragment 50 μM) of the same compound?
Its value is “significantly impaired”.
